≈ marks a conversion by molar mass, not a printed value. Where two headings read alike, the source gives them in different places.
Key:
[1] = cited from earlier work
[2] = Packing of metazachlor in C16 protein microbeads, active substance distribution (photometric at 215 nm); assay type: physicochemical
Protocol: 500 μl of a 10 mg/ml C16 protein-comprising potassium phosphate solution (5 mM, pH 8.0) were mixed with 100 μl of a metazachlor solution (50 mg/ml in isopropanol). C16 Protein microbead formation was induced by adding 1 ml of 1 M potassium phosphate buffer (pH 8.0). The mixture was incubated for 1 h at room temperature and then centrifuged for 10 min at 20000×g. The pellet was washed twice with 5 ml of double-distilled H2O and then lyophilized. An identical mixture without C16 protein was carried out as control.
In each case, about 20% of the active substance were present in the wash supernatants.
(§1) Analysis of the Active Substance Distribution (Photometric Determination at λ=215 nm)

proteinase K = proteinase K (Parengyodontium album, UniProt P06873); assay: Release of metazachlor from C16 protein microbeads by proteinase K digestion
Chain of proteinase K (P06873 106-384): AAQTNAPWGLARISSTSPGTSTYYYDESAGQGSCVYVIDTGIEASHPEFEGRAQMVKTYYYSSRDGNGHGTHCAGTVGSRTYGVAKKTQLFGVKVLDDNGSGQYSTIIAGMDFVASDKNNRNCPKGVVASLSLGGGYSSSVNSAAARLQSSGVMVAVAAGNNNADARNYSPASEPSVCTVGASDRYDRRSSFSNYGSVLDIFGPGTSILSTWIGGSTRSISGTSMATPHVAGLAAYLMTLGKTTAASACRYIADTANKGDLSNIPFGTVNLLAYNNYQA
Protocol: The lyophilized metazachlor-comprising C16 protein microbeads were proteolytically digested in 1 ml of 10 mM Tris buffer; 0.1% SDS; 100 μg of proteinase K for 1 h at 37° C. The active substance crystals remaining from the mixture after centrifugation for 10 minutes (20000×g) were dissolved in 500 μl of isopropanol. About 11% of the amount of metazachlor used was detected in the supernatant of the protease digestion. The active substance crystals redissolved in isopropanol constituted about 35% of the amount of metazachlor used.
as §1

[3] = of the amount of metazachlor used
[4] = proteinase K, 1 h, 37° C., 5.0 mg metazachlor used

For Clc1ccccc1C(c1ccccc1)(c1ccccc1)n1ccnc1 [Clotrimazole], the Solubility in water ([1]; 25° C.) is listed as less than 10 µg/mL.

In the case of Cc1cccc(C)c1N(Cn1cccn1)C(=O)CCl [metazachlor], the “Crystal formation after potassium phosphate precipitation” value ([2]; mixture with C16 protein) is reported as “no metazachlor crystals were visible”, the “Crystal formation after potassium phosphate precipitation” value ([2]; mixture without C16 protein) is reported as “large active substance crystals were formed” and the “Active substance crystals redissolved in isopropanol” value (proteinase K; [3]) is reported as “about 35%”. For the same molecule, the “Metazachlor detected in the supernatant of the protease digestion” value (proteinase K; [3]) was “About 11%”, the “Amount of substance, pellet after digestion in isopropanol” value (proteinase K; [4]) was 1.74 mg and the “Amount of substance, supernatant after protease digestion” value (proteinase K; [4]) was 0.55 mg.

In the case of NC(=O)N1c2ccccc2C=Cc2ccccc21 [Carbamazipine], the Solubility in water ([1]; RT) is listed as 945.1 µg/mL (≈ 4000 µM).

B1: C16 protein: synthetic spider silk protein with the polypeptide sequence shown in SEQ ID NO: 1 (protein)
chain: MASMTGGQQMGRGSMGSSAAAAAAAASGPGGYGPENQGPSGPGGYGPGGPGSSAAAAAAAASGPGGYGPENQGPSGPGGYGPGGPGSSAAAAAAAASGPGGYGPENQGPSGPGGYGPGGPGSSAAAAAAAASGPGGYGPENQGPSGPGGYGPGGPGSSAAAAAAAASGPGGYGPENQGPSGPGGYGPGGPGSSAAAAAAAASGPGGYGPENQGPSGPGGYGPGGPGSSAAAAAAAASGPGGYGPENQGPSGPGGYGPGGPGSSAAAAAAAASGPGGYGPENQGPSGPGGYGPGGPGSSAAAAAAAASGPGGYGPENQGPSGPGGYGPGGPGSSAAAAAAAASGPGGYGPENQGPSGPGGYGPGGPGSSAAAAAAAASGPGGYGPENQGPSGPGGYGPGGPGSSAAAAAAAASGPGGYGPENQGPSGPGGYGPGGPGSSAAAAAAAASGPGGYGPENQGPSGPGGYGPGGPGSSAAAAAAAASGPGGYGPENQGPSGPGGYGPGGPGSSAAAAAAAASGPGGYGPENQGPSGPGGYGPGGPGSSAAAAAAAASGPGGYGPENQGPSGPGGYGPGGPG
modifications: Synthetic spider silk C16 protein
In the case of B1, the “Effect on the crystallization of metazachlor” value ([2]; in the presence of aqueous potassium phosphate buffer) is reported as “significant inhibitiory effect”.

Reference: patent US8288512B2, “Use of amphiphilic self-assembling proteins for formulating poorly water-soluble effect substances” (BASF SE, priority 2006, dated 2012)
